Results on one compound are retold here after article PMC7316490, “Dihydrofolate Reductase Is a Valid Target for Antifungal Development in the Human Pathogen Candida albicans” (mSphere, 2020).

The subject of assay [1] is Candida tropicalis. The assay is described as follows: Antifungal susceptibility testing, other species. It is filed as cell-based. As to conditions: YNB medium at pH 5 and pH 7. Here is the method: (§1) Strains of C. albicans (A), C. glabrata (B), C. tropicalis (C), and C. parapsilosis (D) were seeded into YNB medium buffered at pH 5 or pH 7 at approximately 1 × 10^4 cells/ml in the presence of a range of MTX concentrations. After 48 h at 30°C, growth was quantified as the OD600 and expressed as a percentage of the value for the untreated controls. The values presented here are the average of two replicates and are representative of two experiments. The susceptibility to MTX at the highest concentration at each pH was compared to that of the other pH values using a two-tailed Student's t test (*, P < 0.01; **, P < 0.0001).
(§2) Stock solutions of MTX were prepared at 10 mM in dimethyl sulfoxide (DMSO) and diluted as needed in the same solvent. Each C. albicans strain was grown overnight in YPD medium at 30°C and diluted to approximately 1 × 10^4 cells/ml in YNB medium or RPMI 1640 medium, and 100 μl of each cell suspension was transferred to the wells of a round-bottom 96-well plate. An additional 100 μl of YNB or RPMI 1640 medium containing 2× the final desired concentration of MTX was then added to each well. The final concentration of DMSO was 0.5% for all treatments. Plates were then incubated at 30°C before growth was quantified after 24 and 48 h by measuring the OD600 using a Cytation 5 plate reader (Bio-Tek Instruments, Inc.). MIC50 values were identified visually using the CLSI antifungal susceptibility assay and then confirmed by quantifying growth by the OD600 value. The growth of each strain at each drug concentration was then expressed relative to that of the DMSO-alone control. The susceptibility to MTX at the highest concentration at each pH was compared to that of the other pH values using a two-tailed Student's t test.

Assay [2] concerns Candida glabrata. The assay is described as follows: Antifungal susceptibility testing, other species. Particulars: YNB medium at pH 5 and pH 7. It is filed as cell-based. Here is the method:
as §1, §2

Assay [3] relates to Candida parapsilosis. The assay can be described thus: Antifungal susceptibility testing, other species. It is filed as cell-based. Particulars: YNB medium at pH 5 and pH 7. Here is the method:
as §1, §2

Assay [4] deals with C. albicans cdr1Δ/Δ, tac1Δ/Δ and mdr1Δ/Δ mutants. The assay is described as follows: Antifungal susceptibility testing of efflux pump mutants. It is filed as cell-based, Candida albicans. Particulars: for MIC50: Candida albicans. Here is the method: C. albicans cdr1Δ/Δ (A), tac1Δ/Δ (B), or mdr1Δ/Δ (C) strains, or that overexpress CDR1 (A), TAC1 (B), or MDR1 (C) from the PTEF1 promoter, were subcultured to approximately 1 × 10^4 cells/ml into YNB medium at pH 5 or pH 7 supplemented with a range of MTX concentrations. After 48 h at 30°C, growth was quantified as the OD600 value and expressed as a percentage of the value for the untreated wells. The values presented here are the average of two replicates and are representative of two independent experiments. WT, wild type.
as §2

The test system of assay [5] is wild-type C. albicans strain (SC5314). The assay can be described thus: Antifungal susceptibility testing (dose-response growth, OD600). It is filed as cell-based, Candida albicans. As to conditions: for MIC50: Candida albicans. Here is the method:
A wild-type C. albicans strain (SC5314) was seeded at 1 × 10^4 cells/ml into YNB medium without folate or PABA with the indicated supplements and increasing concentrations of MTX. After 48 h of incubation at 30°C, growth was quantified as the OD600 value and expressed as a percentage of the value for the DMSO-treated control. The values presented here are the average of two replicates and are representative of two independent experiments.
Approximately 1 × 10^4 cells/ml of a wild-type C. albicans strain was seeded into a 96-well plate with increasing concentrations of MTX in YNB pH 5, YNB pH 7, and RPMI pH 7 media. After 48 h, the OD600 was measured and expressed as a percentage of the value for the DMSO-treated control. The results presented here are the averages of two replicates and are representative of two independent experiments.
as §2, with “Each C. albicans strain was grown overnight in YPD medium at 30°C and diluted to approximately 1 × 10^4 cells/ml in YNB medium or RPMI 1640 medium, and 100 μl of each cell suspension was transferred to the wells of a round-bottom 96-well plate. An additional 100 μl of YNB or RPMI 1640 medium containing 2× the final desired concentration of MTX was then added to each well.” left out

As usually defined, the MIC50 is an inhibitory concentration at the 50% level, which refers to growth in some studies and to a panel of isolates in others. The low end stands for higher susceptibility, the high end for lower susceptibility.

≈ marks a conversion by molar mass, not a printed value. Some results are limits rather than exact numbers.

As to `CN(Cc1cnc2nc(N)nc(N)c2n1)c1ccc(C(=O)N[C@@H](CCC(=O)O)C(=O)O)cc1` [Methotrexate, methotrexate], the “growth inhibition (in words)” value in assay [1] is “modest and pH-dependent growth inhibition”; in assay [2], “insensitive at either pH”; in assay [3], “modest and pH-dependent growth inhibition”. Further, the MIC50 in assay [4] (pH 5) is 0.39 µM (≈ 0.177 µg/mL); in assay [4] (pH 7), above 6.25 µM; in assay [5] (SC5314, YNB medium with additional supplements of folic acid (up to 25 μM)), 0.078 µM (≈ 0.0354 µg/mL); in assay [5] (SC5314, YNB with addition of 250 μM folinic acid) it was around 5 µM (≈ 2.27 µg/mL); in assay [5] (SC5314, pH 5, YNB pH 5 medium) it was around 0.78 µM (≈ 0.354 µg/mL); in assay [5] (SC5314, pH 7, RPMI 1640 pH 7 medium) it was above 50 µM. Besides, the MIC50 was above 50 µM in assay [5] (SC5314, pH 7, YNB pH 7 medium) and around 0.78 µM (≈ 0.354 µg/mL) in assay [5] (SC5314, unbuffered standard YNB medium). In addition, the “susceptibility of mdr1Δ/Δ mutant versus MDR1+ control strains” value in assay [4] (YNB medium at pH 5 or 7) was “not significantly different”. Further, in assay [5] (YNB medium), the “effect of 1 μM DHF, THF or 5MTHF supplement on MTX-mediated growth inhibition” value was “had no effect”. In addition, the “drop of MIC50 with folic acid supplements” value in assay [5] (versus standard YNB medium) is on record as around 10 fold.
